For one experiment, the target named is MAT2A (Homo sapiens, UniProt P31153). Description: MAT2A Biochemical Assay. As to conditions: read-out: MAT2A enzymatic IC50. The procedure: Example A: MAT2A Biochemical Assay
Compounds described herein were tested as follows:
• (1). Prepared 1×Assay buffer. • (2). Preparation of compound concentration gradient: the compounds test condition were […], 3-fold dilution, 10 doses, singlet or duplicate. 100x concentration compounds were prepared in 384-well plate. Then used Echo 550 to transfer 250 nl to a 384-reaction plate for later use. Added 250 nl of 100% DMSO to the negative and positive control wells. • (3). Prepared 1.67× final concentration enzyme solution with 1×Assay buffer. • (4). Added 15 μl of 1.67× Enzyme solution to the compound wells and positive control wells; added 15 μl of 1×Assay buffer to the negative control wells. • (5). Centrifuged at 1000 rpm for 30 seconds and incubate for 15 minutes. • (6). Prepared 2.5× final concentration Substrate mix solution with 1×Assay buffer. • (7). Added 10 μl of 2.5× final concentration Substrate mix solution to start the reaction. • (8). Centrifuged at 1000 rpm for 30 seconds and incubate for 150 minutes. • (9). Added […] Biomol Green to stop the reaction, centrifuge at 1000 rpm for 30 seconds and incubate for 15 minutes. read O.D.620, process data.
• (1) Using GraphPad Prism 5.
[formula] • (3) Max signal was obtained from the positive control wells. • (4) Min signal was obtained from the negative control wells.

The test system of another experiment is KP4 MTAP null xenografts. The experiment in a line: Efficacy study of KP-4 human pancreatic cancer xenograft model in NOD SCID mice. It counts as in vivo. To be noted: for Tumor volume (mm^3) Final (mean): Mean ± SD. The procedure:
Efficacy Study of KP-4 Human Pancreatic Cancer Xenograft Model in NOD SCID Mice
The KP-4 tumor cell line was maintained in vitro as monolayer culture in RPMI 1640 medium supplemented with 10% fetal bovine serum at 37° C. in an atmosphere of […] in air. The tumor cells were routinely subculture weekly by trypsin-EDTA treatment, not to exceed 4-5 passages. The cells growing in an exponential growth phase was harvested and counted for tumor inoculation.
Each mouse was inoculated subcutaneously on the central right flank with KP-4 tumor cells (1×10^7) in 0.1 mL of RPMI-1640 without serum for the tumor development. The treatment started when the mean tumor size reached approximately 100 mm^3. Mice were assigned to groups such that the mean tumor volume is the same for each treatment group and time point.
For routine monitoring, all study animals were monitored for not only tumor growth but also behavior such as mobility, food, and water consumption (by cage side checking only), body weight (BW), eye/hair matting and any other abnormal effect. Any mortality and/or abnormal clinical signs were recorded.
Body weights of all animals were measured twice a week throughout the study. Body weight change, expressed in %, will be calculated using the following formula: BW change (%)=(BWDay x/BWDay 0)×100, where BWDay x is BW on a given day, and BWDay 0 is BW on Day 0 (initiation of treatment).
The measurement of tumor size were conducted twice a week with a caliper and the tumor volume (mm^3) was estimated using the formula: TV=a×b^2/2, where a and b are long and short diameters of a tumor, respectively. The TVs were used for calculation of the tumor growth inhibition (TGI, an indicator of antitumor effectiveness) value using the formula: TGI (%)=[1−(Tn−T0)/(Cn−C0)]×100%, only over the dosing period (dosing days 0 to days n). Where: Tn—is the avg tumor volume at the respective day “n” after dosing throughout treatment period; T0—is the avg tumor volume in the treatment group at day 0 before treatment (immediately before); Cn—avg tumor volume in the control group at the respective day “n” after dosing throughout treatment period; and C0—average tumor volume in the control group at day 0 before treatment (immediately before). The experiment was terminated when the mean tumor volume exceeded 2000 mm^3 or severe body weight loss.
The statistical software GraphPad Prism (version number: 8) was used to analyze the difference in tumor volume between the treatment group and the solvent control group. Two-way ANOVA and Bonferroni multiple tests were used to compare whether there was a significant difference in tumor volume between the vehicle control group and each treatment group during the administration period.
Mean tumor volume at dosing start was approximately 102 mm^3, with ten mice randomized to each treatment group. In the KP4 MTAP null tumor model, mice were dosed orally, once per day (QD) with Vehicle, once per day (QD) with Compound 1 at 1, 3 mg/kg, once per day (QD) with AG270 at 100 mg/kg, mice were intravenous, per week with Docetaxel at 2.5 mg/kg, or Compound 1 combined with Docetaxel at each dose level.

Experiment [1] deals with HCC15 MTAP null xenografts. Description: Efficacy study of HCC15 human lung cancer xenograft model in NOD SCID mice. It counts as in vivo. As to conditions: for Tumor volume (mm^3) Final (mean): Mean ± SD. The procedure: Efficacy Study of HCC15 Human Lung Cancer Xenograft Model in NOD SCID Mice Methods:
The HCC15 cells were maintained in vitro as a monolayer culture in 90% 1640+10% FBS, 100U/ml penicillin and 100 μg/ml streptomycin at 37° C. in an atmosphere of 5% CO2 in air. The tumor cells were routinely subcultured at a ratio of 1:2 to 1:3 every 3-4 days. Alternatively, Cultures were maintained by addition or replacement of fresh medium. Started cultures at 5×10^5 cells/mL and maintained between 0.5×10^5 and 2×10^6 cells/ml.
NOD SCID mice, female, 6-8 weeks, weighing approximately 20-22 g.
Each mouse were inoculated subcutaneously at the right flank with HCC15 cells in a 0.2 mL mixture of 1640 for tumor development (5×10^6 cells/mouse). Dosing was started when the average tumor size reaches approximately 100-200 mm^3 for the tumor efficacy study with tool and med chem molecules to look for efficacy vs vehicle tumor growth.
Mean tumor volume at dosing start was approximately 133.09 mm^3, with ten mice randomized to each treatment group. In the HCC15 MTAP null tumor model, mice were dosed orally, once per day (QD) with Vehicle, once per day (QD) with Compound 1 at 3 mg/kg, once per day (QD) with AG270 at 100 mg/kg, mice were intravenous, per week with Docetaxel at 2.5 mg/kg, or Compound 1 combined with Docetaxel at each dose level.
On the technique in general: In xenograft studies the graft and the host belong to different species.

The mark [2] stands for this setting: combination: Compound 1 3 mg/kg QD + Docetaxel 2.5 mg/kg per week.
The mark [3] stands for this setting: combination: Compound 1 3 mg/kg QD + Docetaxel 2.5 mg/kg per week, listed as Compound 1.

Sequence of MAT2A (P31153 whole entry, species assumed): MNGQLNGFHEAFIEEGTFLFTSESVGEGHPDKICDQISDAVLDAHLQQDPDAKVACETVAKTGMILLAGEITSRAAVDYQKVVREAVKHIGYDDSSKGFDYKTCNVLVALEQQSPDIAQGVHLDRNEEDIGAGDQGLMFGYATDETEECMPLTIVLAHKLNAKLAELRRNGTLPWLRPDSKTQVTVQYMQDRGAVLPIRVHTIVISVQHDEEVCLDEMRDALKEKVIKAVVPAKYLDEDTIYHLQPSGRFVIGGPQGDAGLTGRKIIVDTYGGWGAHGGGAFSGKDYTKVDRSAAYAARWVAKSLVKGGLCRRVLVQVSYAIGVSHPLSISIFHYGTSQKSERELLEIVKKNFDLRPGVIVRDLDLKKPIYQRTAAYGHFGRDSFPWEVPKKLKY

On to `C#CCNc1nc(=O)n(-c2cccnc2C)c2cc(C(F)(F)F)cc(OC)c12` [Example 36, 5-methoxy-1-(2-methylpyridin-3-yl)-4-(prop-2-yn-1-ylamino)-7-(trifluoromethyl)quinazolin-2(1H)-one], for which, at MAT2A, the IC50 was below 50 nM. For the same molecule, the “TGI (%)” value with KP4 MTAP null xenografts (Compound 1 1 mg/kg orally QD) is 36.8%; with KP4 MTAP null xenografts (Compound 1 3 mg/kg orally QD), 53.4%; in the experiment with KP4 MTAP null xenografts (combination: Compound 1 1 mg/kg QD + Docetaxel 2.5 mg/kg per week, listed as Compound 1), 69.6%; with KP4 MTAP null xenografts (setting [3]) it was 73.2%; in experiment [1] (Compound 1 3 mg/kg orally QD, listed as Compound 1, 3 mg/kg), 49.6%; in experiment [1] (setting [3]) it was 71.2%. In addition, the “Tumor volume (mm^3) Final (mean)” value is listed as 1,484 ± 263 mm^3 in the experiment with KP4 MTAP null xenografts (Compound 1 1 mg/kg orally QD); 1,121 ± 181 mm^3 in the experiment on KP4 MTAP null xenografts (Compound 1 3 mg/kg orally QD); 767 ± 101 mm^3 with KP4 MTAP null xenografts (combination: Compound 1 1 mg/kg QD + Docetaxel 2.5 mg/kg per week); 686 ± 80 mm^3 in the experiment on KP4 MTAP null xenografts (setting [2]); 596 ± 63 mm^3 in experiment [1] (Compound 1 3 mg/kg orally QD); 399 ± 42 mm^3 in experiment [1] (setting [2]). Further, the “effect on tumor growth (in words)” value in the experiment on KP4 MTAP null xenografts (combination of Compound 1 (1, 3 mg/kg) and Docetaxel 2.5 mg/kg) is reported as “significantly inhibited tumor growth in a dose dependent manner”; in experiment [1] (combination of Compound 1 3 mg/kg and Docetaxel 2.5 mg/kg), “significantly inhibited tumor growth”.

For orientation: IC50 means the concentration that inhibits the measured activity by half.
